The values below come from US6248744A, “Method for the treatment of pain, including chronic and female specific pain” (priority 2000, dated 2001).

Series [1] concerns rats and mice. Conditions: cited from earlier work.
Series [2] deals with ganglionic nicotinic receptors. Conditions: agonist of ganglionic nicotinic receptors; cited from earlier work.
The test system of series [3] is central nicotinic receptor subtypes. Conditions: cited from earlier work.
The subject of series [4] is animal studies. Conditions: cited from earlier work.
For series [5], the system named is neuropathic rat hindlimb. Nature of the series: Neuropathic pain model (injury of spinal nerves L5 and L6), allodynia measured with von Frey filaments, intrathecal injection. It is filed as in vivo. Conditions: one week after nerve injury. The text has this: Analgesic potency of compounds of the present invention can also be tested in animal models of neuropathic or neurogenic pain. One such model resembles the human condition termed causalgia or reflex sympathetic dystrophy (RSD) secondary to injury of a peripheral nerve. This condition is characterized by hyperesthesia (enhanced sensitivity to a natural stimulus), hyperalgesia (abnormal sensitivity to pain), allodynia (hypersensitivity and pain to normally non-painful stimuli, either thermal or tactile), and spontaneous burning pain. In humans, neuropathic pain tends to be chronic and may be debilitating.
Briefly, in the model used, rats are subjected to a surgical procedure, described by Kim et al. (Kim, S. H. and Chung, J. M. (1992) Pain 50:355-363), designed to reproducibly injure peripheral nerves (spinal nerves L5 and L6). These rats develop a hyperesthetic state, which can be measured, using one or more paradigms known in the art. Here, allodynia was measured by stimulation of neuropathic rat hindlimb using nylon filaments having graded degrees of stiffness.
Sex differences in response to (E)-N-methyl-4-(3-pyridinyl)-3-butene-1-amine were tested using the assay described above. Hypersensitivity to light touch (withdrawal threshold to application of calibrated von Frey filaments) was documented one week later. […]

Series [6] deals with male and female Sprague Dawley rats. Put plainly: Latency to hindpaw withdrawal from a focused light heat source after intrathecal injection. Conditions: for maximum possible analgesic effect: radiant heat paw withdrawal. It is filed as in vivo, rat. Here is the method:
Trans-metanicotine was administered via intrathecal catheters inserted in male and female Sprague Dawley rats such that their tips were in the upper lumbar region. Analgesia was determined as an increase in the latency to withdrawal of the hindpaw from a focused light heat source. To prevent injury, duration of 30 seconds was not exceeded. The latency to paw withdrawal was determined both before and after intrathecal injection of trans-metanicotine in these rats, and the data were expressed as % maximum possible effect.

Series [7] has the same test system. Put plainly: Intraplantar capsaicin mechanical hyperalgesia, hindpaw withdrawal threshold with von Frey filaments, intrathecal injection. It is filed as in vivo, rat. Conditions: for average % reduction in withdrawal threshold over the 2 hours after capsaicin injection: % change from pre-capsaicin threshold, capsaicin 30 μg intraplantar, 50 μg i.t. Here is the method: Adult male and female Sprague Dawley rats were prepared with insertion of intrathecal catheters as described above. Capsaicin (8-methyl-N-vanillyl nonamide) was prepared in a concentration of 30 μg in 10 μl. Briefly, capsaicin powder was first dissolved in Tween 80, then in isotonic saline and heated to 70° C. The solution obtained was filtered and stored in sterile glass vials. Each group of rats represents 6 males and 6 females tested at the same time and each animal received only one injection in the left plantar surface of the hindpaw. Each animal was lightly anesthetized under halothane and immediately after immobility, received intradermal capsaicin, 30 μg injected through a 28 G needle, in the center of the plantar surface. This dose was chosen because it produces mechanical hyperalgesia lasting at least 2 hours (Gilchrist, H. D., Allard, B. L., and Simone, D. A. Enhanced withdrawal responses to heat and mechanical stimuli following intraplantar injection of capsaicin in rats. Pain 1996;67: 179-188).
Hindpaw withdrawal thresholds were tested before capsaicin injection and every 30 minutes thereafter for 2 hours, using von Frey filaments and the up-down method described above. Care was taken to avoid direct contact of the injection point when measuring withdrawal threshold with the filaments. Intrathecal saline, or (E)-N-methyl-4-(3-pyridinyl)-3-butene-1-amine(50 μg) was injected prior to capsaicin.
Intraplantar injection of capsaicin produced a rapid onset, sustained reduction in withdrawal threshold in both sexes. However, male and female control animals differed in withdrawal threshold at baseline and after capsaicin, and the sexes were therefore compared by % change from pre-capsaicin threshold. By this analysis, the average % reduction in withdrawal threshold over the 2 hours after capsaicin injection was 74+/-5.3% in females and 64+/-6.7% in males (p=0.47, NS).

On to `Clc1ccc(C2CC3CCC2N3)cn1` (stereo not drawn) [Epibatidine], for which the “analgesic potency relative to morphine” value in series [1] was “three orders of magnitude higher than morphine”. Moreover, the cardiorespiratory effects entry in series [2] was “cardiorespiratory effects similar to those of nicotine”.
Take `CNCC/C=C/c1cccnc1` [Metanicotine]: the “selectivity for central nicotinic receptor subtypes compared to peripheral ganglionic and muscular nicotinic receptors” value in series [3] is given as “high selectivity”. For the same compound, the antinociceptive effect entry in series [4] is “dose dependent antinociceptive effect”.
Take `CNCC/C=C/c1cccnc1` [trans-metanicotine, (E)-N-methyl-4-(3-pyridinyl)-3-butene-1-amine]: the “return of the level of sensitivity to presurgery levels (mean ±SEM)” value in series [5] (female rats, intrathecal, 100 μg) turned out to be 50±4%. The “effect on hypersensitivity to light touch (von Frey withdrawal threshold)” value in series [5] (male rats, intrathecal injection) was “no effect”. The “maximum possible analgesic effect” value in series [6] (female rats, i.t. injection) is on record as 45%; in series [6] (male rats, i.t. injection), 20%. Besides, the “antinociceptive response in females relative to males” value in series [6] (i.t. injection, females vs males) is “twice as great”. In addition, the “duration of the antinociceptive response” value in series [6] (male and female rats, i.t. injection) is on record as “about 10 minutes”. Also, the “effect at 60 μg compared with 20 μg (ceiling effect)” value in series [6] (male and female rats, i.t., 60 μg) was “failed to be more effective”. Moreover, the “dose dependence of the effect on paw withdrawal latency to a radiant heat stimulus” value in series [6] (male and female rats, i.t., up to a dose of 20 μg) was “dose dependent inhibition of paw withdrawal latency”. The “average % reduction in withdrawal threshold over the 2 hours after capsaicin injection” value in series [7] (female rats) was 74+/-5.3%; in series [7] (male rats), 64+/-6.7%. In series [7] (male and female rats, 50 μg i.t. prior to capsaicin), the “analgesia in the capsaicin model, comparison of the sexes” value is “produced analgesia in this model of pain which was similar between the sexes”.
